Among the data in ChEMBL document CHEMBL3046425, “Synthesis of Antifungal 2-Anilino-4-phenylthiazoles and Their Inhibitory Activities on Sterol Biosynthesis” (J Pestic Sci, 2001) are EC50, Activity and MIC values, retold here.

Assay [1] relates to Botrytis cinerea. The experiment in a line: Antifungal activity against Botryotinia fuckeliana. It counts as functional, organism-based.
Assay [2] has as its target T1, Squalene epoxidase ERG1 (Saccharomyces cerevisiae S288c) (UniProt P32476).
T1 sequence (whole entry): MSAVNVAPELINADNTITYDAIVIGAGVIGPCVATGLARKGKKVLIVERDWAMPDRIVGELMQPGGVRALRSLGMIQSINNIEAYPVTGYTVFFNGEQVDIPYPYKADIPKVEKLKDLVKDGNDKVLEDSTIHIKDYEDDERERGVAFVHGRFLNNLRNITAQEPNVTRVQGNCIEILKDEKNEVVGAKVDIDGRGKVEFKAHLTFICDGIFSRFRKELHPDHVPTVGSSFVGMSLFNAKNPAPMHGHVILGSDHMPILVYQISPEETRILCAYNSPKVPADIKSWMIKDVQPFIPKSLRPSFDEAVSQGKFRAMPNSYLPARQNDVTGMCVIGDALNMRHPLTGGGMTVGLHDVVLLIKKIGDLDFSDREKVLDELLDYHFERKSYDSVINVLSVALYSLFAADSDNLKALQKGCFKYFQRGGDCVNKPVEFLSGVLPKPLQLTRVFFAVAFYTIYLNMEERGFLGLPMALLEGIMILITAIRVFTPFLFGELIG
The experiment in a line: Inhibition of squalene epoxidase in Saccharomyces cerevisiae IFO 1346 assessed as incorporation of [2-14C]mevalonate into squalene at 1 x 10^-5 M after 3 hr. Set-up: scale not given: the % may be the effect or the level left.

Assay [3] concerns Botrytis cinerea. The experiment in a line: Antifungal activity against Botryotinia fuckeliana assessed as accumulation of squalene using [2-14C]acetate at 1 x 10^-7 M. The class given is functional.
For assay [4], the system named is Botrytis cinerea. The experiment in a line: Antifungal activity against Botryotinia fuckeliana assessed as accumulation of squalene using [2-14C]acetate at 1 x 10^-6 M. It counts as functional.
Assay [5] concerns the target T1, Squalene epoxidase ERG1 (Saccharomyces cerevisiae S288c). The experiment in a line: Inhibition of squalene epoxidase in Saccharomyces cerevisiae IFO 1346 assessed as incorporation of [2-14C]mevalonate into 4,4-dimethyl sterols at 1 x 10^-4 M after 3 hr. Further details: scale not given: the % may be the effect or the level left.
The subject of assay [6] is Trichophyton mentagrophytes. Kind of assay: Antifungal activity against Trichophyton mentagrophytes assessed as accumulation of squalene using [2-14C]acetate at 1 x 10^-8 M. The class given is functional.
Assay [7] deals with Trichophyton mentagrophytes. Kind of assay: Antifungal activity against Trichophyton mentagrophytes assessed as accumulation of squalene using [2-14C]acetate at 1 x 10^-9 M. It counts as functional.
Assay [8] deals with T1, Squalene epoxidase ERG1 (Saccharomyces cerevisiae S288c). The experiment in a line: Inhibition of squalene epoxidase in Saccharomyces cerevisiae IFO 1346 assessed as incorporation of [2-14C]mevalonate into 2,3-oxidosqualene at 1 x 10^-4 M after 3 hr. Set-up: scale not given: the % may be the effect or the level left.
For assay [9] the target is unchanged. Kind of assay: Inhibition of squalene epoxidase in Saccharomyces cerevisiae IFO 1346 assessed as incorporation of [2-14C]mevalonate into 4-desmethyl sterols at 1 x 10^-4 M after 3 hr. Further details: scale not given: the % may be the effect or the level left.
The target is the same in assay [10]. The experiment in a line: Inhibition of squalene epoxidase in Saccharomyces cerevisiae IFO 1346 assessed as incorporation of [2-14C]mevalonate into 2,3-oxidosqualene at 1 x 10^-5 M after 3 hr. Further details: scale not given: the % may be the effect or the level left.
For assay [11] the target is unchanged. The experiment in a line: Inhibition of squalene epoxidase in Saccharomyces cerevisiae IFO 1346 assessed as incorporation of [2-14C]mevalonate into 4-desmethyl sterols at 1 x 10^-5 M after 3 hr. Further details: scale not given: the % may be the effect or the level left.
Another assay relates to Pyricularia oryzae. Kind of assay: Antifungal activity against Magnaporthe oryzae. It counts as functional, organism-based.
The target in assay [12] is T1, Squalene epoxidase ERG1 (Saccharomyces cerevisiae S288c). The experiment in a line: Inhibition of squalene epoxidase in Saccharomyces cerevisiae IFO 1346 assessed as incorporation of [2-14C]mevalonate into 4alpha-methyl sterols at 1 x 10^-5 M after 3 hr. Further details: scale not given: the % may be the effect or the level left.
Assay [13] shares this target. The experiment in a line: Inhibition of squalene epoxidase in Saccharomyces cerevisiae IFO 1346 assessed as incorporation of [2-14C]mevalonate into squalene at 1 x 10^-4 M after 3 hr. Set-up: scale not given: the % may be the effect or the level left.
Assay [14] has the same target. The experiment in a line: Inhibition of squalene epoxidase in Saccharomyces cerevisiae IFO 1346 assessed as incorporation of [2-14C]mevalonate into 4,4-dimethyl sterols at 1 x 10^-5 M after 3 hr. Further details: scale not given: the % may be the effect or the level left.
Assay [15] concerns Botrytis cinerea. The experiment in a line: Antifungal activity against Botryotinia fuckeliana assessed as accumulation of squalene using [2-14C]acetate at 1 x 10^-5 M. It counts as functional.
Assay [16] deals with T1, Squalene epoxidase ERG1 (Saccharomyces cerevisiae S288c). Kind of assay: Inhibition of squalene epoxidase in Saccharomyces cerevisiae IFO 1346 assessed as incorporation of [2-14C]mevalonate into 4alpha-methyl sterols at 1 x 10^-4 M after 3 hr. Set-up: scale not given: the % may be the effect or the level left.
In assay [17] the test system is Trichophyton mentagrophytes. Kind of assay: Antifungal activity against Trichophyton mentagrophytes. The class given is functional.
Assay [18] deals with Trichophyton mentagrophytes. Kind of assay: Antifungal activity against Trichophyton mentagrophytes assessed as accumulation of squalene using [2-14C]acetate at 1 x 10^-7 M. It counts as functional.

In brackets after ≈: the same amount, converted by molar mass.

One may read the EC50 as the concentration that produces a half-maximal response. The MIC is the lowest concentration found to suppress growth. With `Clc1ccc(Nc2nc(-c3c(Cl)cccc3Cl)cs2)cc1`, the figures for the EC50 in the assay with Botrytis cinerea [1] and with Pyricularia oryzae were 0.05 µg/mL (≈ 0.141 µM) and 0.4 µg/mL (≈ 1.12 µM), respectively. The Activity in assay [2] stood at 44.9%; in the assay on Botrytis cinerea [3], 7.5%; in the assay with Botrytis cinerea [4] it was 72.5%; in [5], 0.9%; in [6], 67.4%; in [7], 28.5%. For the same molecule, the Activity in [8] came to 1.9%; in assay [9] it was 15.3%; in assay [10], 3.6%; in [11], 47.2%; in assay [12], 1.7%; in assay [13], 80.3%. Besides, the Activity in [14] amounted to 1.5%; in the assay on Botrytis cinerea [15], 86.7%; in assay [16], 0.7%; in assay [18] it was 85.8%. Besides, in [17], the lowest concentration to inhibit growth (MIC) was 0.03 µg/mL (≈ 0.0843 µM).
